In US20250213647A1, “CHEMOKINE RECEPTORS AND ALPHA1 ADRENERGIC RECEPTORS/VASOPRESSIN RECEPTORS 1A HETEROMERS AS DRUG TARGETS FOR DISEASE” (UNIVERSITY OF SOUTH FLORIDA, priority 2022, published 2025):

Columns and labels:
[1] = target: T1, CCR2 (Homo sapiens, UniProt P41597); assay: CCR2 internalization in THP-1 cells (flow cytometry); type: cell-based; design: host or cells: THP-1; conditions: 100 nM CCL2 plus 1 μM PE, 0-45 min at 37° C.; FIG. 7A/B
Protocol: To examine receptor internalization in THP-1 cells, cells were incubated with 100 nM CCL2 or with 100 nM CCL2 plus 1 μM PE for 0-45 min at 37° C. Cells were then cooled on ice and washed with 50 mM glycine buffer, pH 2.7, 150 mM NaCl, followed by washing with ice-cold PBS. Cell surface CCR2 was probed with anti-CCR2 and corresponding secondary Alexa 488-conjugated antibodies. Receptor cell surface expression levels are examined by flow cytometry and expressed as the median fluorescence intensity (MFI) in percent of the MFI measured at 0 min (=100%).

[2] = target: T1, CCR2; assay: Chemotaxis assay, human monocytes toward CCL2 (CCR2-mediated); type: cell-based; design: host or cells: THP-1; conditions: mean±SE, read-out: IC50 for inhibition of CCR2-mediated chemotaxis
Protocol: Cell migration was measured employing the Neuroprobe (Gaithersburg, MD, USA) ChemoTx® Disposable Chemotaxis System. A 96-well Boyden-chamber (30 μL/well, 8 μm pores, 1×10^5 pores/cm^2 pore density) was selected for all chemotaxis experiments. Bottom wells of the Boyden-chamber were loaded with 30 μL of test substances at various concentrations. Top wells of the membrane were loaded with 25 μL of THP-1 cells, THP-1_ADRA1B^KO, wild type THP-1 cells after clonal expansion (=control for THP-1_ADRA1B^KO) or freshly isolated monocytes (200 cells/μL). THP-1 cells were suspended in depleted RPMI1640 (0.5% HyClone™ fetal bovine serum, Sigma); Freshly isolated monocytes were suspended in RPMI1640 (0.5% human platelet poor plasma, Sigma). After 3 hours, transmigrated cells were counted utilizing the Cytation 1 plate reader (BioTek) by direct imaging in high contrast bright field (4×) and post-imaging particle analyses with Gen5 (v3.05) Imaging & Microscopy Software (BioTek). The chemotactic index (CI) was calculated as the ratio of cells that transmigrated in the presence versus the absence of the test solutions.

T1 sequence (P41597 whole entry): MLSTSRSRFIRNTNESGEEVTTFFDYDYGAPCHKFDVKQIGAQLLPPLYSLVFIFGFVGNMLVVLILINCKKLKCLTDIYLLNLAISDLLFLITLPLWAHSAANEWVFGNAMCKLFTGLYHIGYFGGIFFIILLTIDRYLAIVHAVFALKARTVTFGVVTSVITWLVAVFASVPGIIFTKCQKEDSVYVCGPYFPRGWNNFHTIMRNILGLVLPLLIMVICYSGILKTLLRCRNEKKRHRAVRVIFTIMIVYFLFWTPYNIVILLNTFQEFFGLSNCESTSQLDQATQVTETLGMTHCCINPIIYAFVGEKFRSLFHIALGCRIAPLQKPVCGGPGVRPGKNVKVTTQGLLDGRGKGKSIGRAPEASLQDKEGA

CNC[C@H](O)c1cccc(O)c1 [phenylephrine]
CCR2 cell surface expression, CCL2 plus ligand vs CCL2 alone [1]: significantly reduced CCR2 expression | IC50 [2]: 37 ± 26 nM
